The record followed here is article PMC8151276, “An Integrated Approach toward NanoBRET Tracers for Analysis of GPCR Ligand Engagement” (Molecules, 2021).

In this test the target is T1, TSHR (Homo sapiens, UniProt P16473).
T1 construct: purchased Promega (in-house HiBiT-GPCR construct library, NanoBRET)
Kind of test: NanoBRET screen HiBiT-TSHR in HEK293. Type of test: binding. As to the method: Each tracer candidate was screened across the entire library of HiBiT-GPCR constructs using NanoBRET as the detection modality. As depicted in Figure 4A, the specificity of interactions was evaluated through decrease in BRET due to competitive displacement of a bound tracer by excess parental compound. Each tracer was analyzed for binding to each HiBiT-GPCR fusion in the absence and in the presence of competing parental compound. Briefly, HEK293 cells were transfected with HiBiT-GPCR constructs diluted into promoterless DNA to reduce expression and maximize translocation to the cell surface. Each tracer candidate was then screened at concentrations of 1 μM and 0.1 μM across cells expressing these fusions. Cells were treated for 1.5 h with tracer either alone or in the presence of 20 μM competing parental compound (i.e., control). BRET was measured upon addition of purified LgBiT and subsequent complementation with HiBiT genetically fused to a GPCR. The specificity of interactions was assessed through a decrease in BRET signal due to competitive displacement of the bound tracer. To further gauge the robustness of these interactions, the fold response over the control (i.e., BRETtracer/BRETcontrol) was calculated. We chose a 1.5-fold response, which translates to ≥7-fold signal over noise as the minimal threshold required to score an interaction as positive.
HiBiT-GPCR DNA constructs were diluted in 10 mM Tris pH 8 to a final concentration of 0.01 μg/μL, arrayed in 96-well plates and stored at −20 °C. For transfection, HEK293 cells were suspended in Opti-MEM (without phenol red) supplemented with 2% fetal bovine serum (Seradigm) and 100 units/mL penicillin–streptomycin (Gibco) at a final concentration of 220,000 cells/mL and dispensed into white 96-well plates at 90 μL/well. Subsequent transfections and screens were carried using an Agilent Bravo Automated Liquid Handling Platform. First, the 96-well HiBiT DNA arrays were diluted 25-fold in Opti-MEM (without serum or phenol red) to a final concentration of 0.0004 μg/μL and 20 μL of the diluted DNAs were transferred into new 96-well plates. Next, promoterless carrier DNA (1 μg/μL) was diluted 25-fold (0.04 μg/μL) and then dispensed into the diluted arrays at 20 μL/well. Following brief mixing, Viafect transfection reagent (Promega) diluted 16-fold into Opti-MEM was dispensed into the plates at 40 μL/well. After mixing by pipetting, plates were incubated for 10 min on the pipetting station deck. The DNA-transfection reagent complexes were then added to plates containing cells. To facilitate the screen, 10 μL of DNA-transfection reagent complexes were added in duplicates to the top 4 and bottom 4 rows, resulting in two identical 48-well arrays per plate. Plates with transfected cells were incubated for 18–20 h at 37 °C/5% CO2. A screen of each tracer across the entire library using two different concentrations requires duplicate plates of transfected cells. Depending on the number of tracers being screened, transfections can be scaled up using the same ratios. The next day, for each tracer, four 20× screening solutions in tracer dilution buffer (Promega) were prepared: two duplicates at final concentration of 20 μM and two duplicates at a final concentration of 2 μM. […] The four resulting solutions were diluted 4-fold in Opti-MEM without serum or phenol red to generate 5× solutions (5 µM and 0.5 µM tracer +/− 100 μM competing compound). To screen the library, a BioTek MultiFlo FX liquid dispenser was used to dispense 22.5 µL of tracer solution to the top 4 rows and 22.5 µL tracer + competing compound solution to the 4 bottom rows. Plates were briefly mixed on an orbital shaker and incubated for 1.5 h at room temperature. […] Plates were briefly mixed on an orbital shaker and incubated for 15 min to allow complementation.
For orientation: Bioluminescence resonance energy transfer reports proximity on the nanometre scale.

T1 sequence (P16473 21-764): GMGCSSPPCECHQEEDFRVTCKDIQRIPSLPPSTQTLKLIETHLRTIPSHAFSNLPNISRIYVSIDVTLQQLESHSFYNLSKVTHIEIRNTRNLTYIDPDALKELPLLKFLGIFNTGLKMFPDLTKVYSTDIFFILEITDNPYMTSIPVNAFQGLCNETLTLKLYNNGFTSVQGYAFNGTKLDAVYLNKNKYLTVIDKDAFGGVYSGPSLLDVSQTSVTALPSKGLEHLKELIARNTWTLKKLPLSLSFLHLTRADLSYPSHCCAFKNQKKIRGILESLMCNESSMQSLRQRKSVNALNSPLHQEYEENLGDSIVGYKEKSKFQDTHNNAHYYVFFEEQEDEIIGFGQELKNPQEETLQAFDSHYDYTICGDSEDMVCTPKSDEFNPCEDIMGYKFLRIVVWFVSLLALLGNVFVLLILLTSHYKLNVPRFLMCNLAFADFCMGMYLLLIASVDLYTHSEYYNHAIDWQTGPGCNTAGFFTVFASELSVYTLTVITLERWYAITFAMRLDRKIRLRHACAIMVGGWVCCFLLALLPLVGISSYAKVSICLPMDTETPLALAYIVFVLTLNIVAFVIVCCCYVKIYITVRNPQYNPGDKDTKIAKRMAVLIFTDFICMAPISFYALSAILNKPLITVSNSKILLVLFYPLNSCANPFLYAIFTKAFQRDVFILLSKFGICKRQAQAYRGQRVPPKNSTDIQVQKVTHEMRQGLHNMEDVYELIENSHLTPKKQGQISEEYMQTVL

In the case of `O=C(CCOCCOCCOCCOCCNC(=O)CCc1ccc2n1[B-](F)(F)[N+]1=C(c3ccc[nH]3)C=CC1=C2)NCCCN1CCN(C2=Nc3ccccc3Oc3ccc(Cl)cc32)CC1` [Loxapine-a-2-NB590], the “NanoBRET Fold Response” value is, setting by setting: (TSHR, tracer 0.1μM) 0.97; (TSHR, tracer 1μM) 1.07.

For the molecule `CCCn1c(=O)c2[nH]c(-c3ccc(OCC(=O)NCCNC(=O)CCOCCNC(=O)c4ccc(CNC(=O)CCc5ccc6n5[B-](F)(F)[N+]5=C(c7ccc[nH]7)C=CC5=C6)cc4)cc3)nc2n(CCC)c1=O` [XAC-3-NB590], the “NanoBRET Fold Response” value was 1.08 (TSHR, tracer 0.1μM) and 1.03 (TSHR, tracer 1μM).

With `COc1ccccc1N1CCN(CCCCN2C(=O)c3ccc(CNC(=O)CCOCCOCCOCCOCCNC(=O)CCc4ccc5n4[B-](F)(F)[N+]4=C(c6ccc[nH]6)C=CC4=C5)cc3C2=O)CC1` [NAN-190-2-NB590], the “NanoBRET Fold Response” value reads like this: (TSHR, tracer 0.1μM) 0.96; (TSHR, tracer 1μM) 1.06.

`COc1ccccc1N1CCN(CCCCN2C(=O)c3ccc(CNC(=O)CCOCCNC(=O)c4ccc(CNC(=O)CCc5ccc6n5[B-](F)(F)[N+]5=C(c7ccc[nH]7)C=CC5=C6)cc4)cc3C2=O)CC1` [NAN-190-3-NB590]: the “NanoBRET Fold Response” value reads like this: (TSHR, tracer 0.1μM) 1.01; (TSHR, tracer 1μM) 1.04.

For `O=C(CCc1ccc2n1[B-](F)(F)[N+]1=C(c3ccc[nH]3)C=CC1=C2)NCc1ccc(C(=O)NCCOCCC(=O)N[C@@H]2CC[C@@]3(O)[C@H]4Cc5ccc(O)c6c5[C@@]3(CCN4CC3CC3)[C@H]2O6)cc1` [Naltrexone-3-NB590], the “NanoBRET Fold Response” value by setting is: (TSHR, tracer 0.1μM) 1.36; (TSHR, tracer 1μM) 1.06.

Consider `CCOC(=O)c1cc(C#N)c(N2CCC(C(=O)NS(=O)(=O)Cc3ccccc3/C=C/C(=O)NCCNC(=O)CCc3ccc4n3[B-](F)(F)[N+]3=C(c5ccc[nH]5)C=CC3=C4)CC2)nc1C` [AZD1283-1-NB590], for which the “NanoBRET Fold Response” value is on record as 1.00 (TSHR, 0.1μM) and 0.96 (TSHR, 1μM).

For the molecule `COc1ccc2[nH]c(-c3ccc(CNC(=O)CCOCCOCCOCCOCCNC(=O)CCc4ccc5n4[B-](F)(F)[N+]4=C(c6ccc[nH]6)C=CC4=C5)cc3)c(CCNC(C)=O)c2n1` [AzomelatoninICO9-2-NB590], the “NanoBRET Fold Response” value is, setting by setting: (0.1μM tracer) 1.03; (1μM tracer) 0.95.

For `CC(C)N(CC[C@H](c1ccccc1)c1cc(CCNC(=O)CCOCCOCCOCCOCCNC(=O)CCc2ccc3n2[B-](F)(F)[N+]2=C(c4ccc[nH]4)C=CC2=C3)ccc1O)C(C)C` [Tolterodine-2-NB590], the “NanoBRET Fold Response” value is 0.69 (TSHR, tracer 0.1μM) and 1.20 (TSHR, tracer 1μM).

Consider `CN1CCN(C2=Nc3cc(Cl)ccc3N(CC(=O)NCCOCCOCCOCCOCCNC(=O)CCc3ccc4n3[B-](F)(F)[N+]3=C(c5ccc[nH]5)C=CC3=C4)c3ccccc32)CC1` [Clozapine-c-2-NB590], for which the “NanoBRET Fold Response” value is recorded as 0.99 (TSHR, 0.1μM tracer) and 1.04 (TSHR, 1μM tracer).

For `N#CN=C(NCCCOc1cccc(CN2CCCCC2)c1)NCCNC(=O)CCOCCOCCOCCOCCNC(=O)CCc1ccc2n1[B-](F)(F)[N+]1=C(c3ccc[nH]3)C=CC1=C2` [Aminopotentidine-2-NB590], the “NanoBRET Fold Response” value came to 1.07 (TSHR, tracer 0.1μM) and 1.01 (TSHR, tracer 1μM).

For the molecule `COc1ccc2c(n1)c(CCNC(C)=O)cn2CCNC(=O)CCc1ccc2n1[B-](F)(F)[N+]1=C(c3ccc[nH]3)C=CC1=C2` [Azamelatonin-1-NB590], the “NanoBRET Fold Response” value stood at 1.25 (0.1μM tracer) and 0.91 (1μM tracer).

On to `CC(C)N(CC[C@H](c1ccccc1)c1cc(CCNC(=O)c2ccc(CNC(=O)CCc3ccc4n3[B-](F)(F)[N+]3=C(c5ccc[nH]5)C=CC3=C4)cc2)ccc1O)C(C)C` [Tolterodine-BZ-NB590], for which the “NanoBRET Fold Response” value worked out at 0.96 (TSHR, tracer 0.1μM) and 1.08 (TSHR, tracer 1μM).

On to `O=C(CCc1ccc2n1[B-](F)(F)[N+]1=C(c3ccc[nH]3)C=CC1=C2)NCCOCCOCCNC(=O)OCCOCCN1CCN(C2=Nc3ccccc3Sc3ccccc32)CC1` [Quetiapine-a-2-NB590], for which the “NanoBRET Fold Response” value by setting is: (TSHR, tracer 0.1μM) 0.96; (TSHR, tracer 1μM) 0.92.

With `O=C(CCOCCOCCOCCOCCNC(=O)CCc1ccc2n1[B-](F)(F)[N+]1=C(c3ccc[nH]3)C=CC1=C2)NCCCN1CCN(C2=Nc3cc(Cl)ccc3Nc3ccccc32)CC1` [Clozapine-a-2-NB590], the “NanoBRET Fold Response” value by setting is: (TSHR, 0.1μM tracer) 0.92; (TSHR, 1μM tracer) 1.05.

With `CN1CCN(C2=Nc3cc(Cl)ccc3Nc3ccc(CNC(=O)CCOCCOCCOCCOCCNC(=O)CCc4ccc5n4[B-](F)(F)[N+]4=C(c6ccc[nH]6)C=CC4=C5)cc32)CC1` [Clozapine-b-2-NB590], the “NanoBRET Fold Response” value is, setting by setting: (TSHR, 0.1μM tracer) 1.04; (TSHR, 1μM tracer) 0.99.

Take `Cc1nc2n(c(=O)c1CCN1CCC(c3noc4cc(F)ccc34)CC1)CCCC2OC(=O)NCCOCCOCCOCCOCCNC(=O)CCc1ccc2n1[B-](F)(F)[N+]1=C(c3ccc[nH]3)C=CC1=C2` (centres unmarked) [Risperidone-2-NB590]: the “NanoBRET Fold Response” value is 1.00 (TSHR, tracer 0.1μM) and 0.96 (TSHR, tracer 1μM).
